One block for each molecule: values may come before it.
Experiments:
MAG [1] = target: T1, MAG (Rattus norvegicus, UniProt P07722); experiment: Neurite outgrowth of DRG neurons on MAG-expressing and control CHO cells: reversal of promotion by MAG; assay type: cell-based; settings: for % Reversal of Promotion: PND 2 DRG neurons; for effect on the promotion of neurite outgrowth by MAG: increasing concentrations of sugar, text summary of TABLE 2
T1 construct: host or cells: dhfr-deficient CHO cells (CHO-MAG2)
T1 sequence (P07722 20-626): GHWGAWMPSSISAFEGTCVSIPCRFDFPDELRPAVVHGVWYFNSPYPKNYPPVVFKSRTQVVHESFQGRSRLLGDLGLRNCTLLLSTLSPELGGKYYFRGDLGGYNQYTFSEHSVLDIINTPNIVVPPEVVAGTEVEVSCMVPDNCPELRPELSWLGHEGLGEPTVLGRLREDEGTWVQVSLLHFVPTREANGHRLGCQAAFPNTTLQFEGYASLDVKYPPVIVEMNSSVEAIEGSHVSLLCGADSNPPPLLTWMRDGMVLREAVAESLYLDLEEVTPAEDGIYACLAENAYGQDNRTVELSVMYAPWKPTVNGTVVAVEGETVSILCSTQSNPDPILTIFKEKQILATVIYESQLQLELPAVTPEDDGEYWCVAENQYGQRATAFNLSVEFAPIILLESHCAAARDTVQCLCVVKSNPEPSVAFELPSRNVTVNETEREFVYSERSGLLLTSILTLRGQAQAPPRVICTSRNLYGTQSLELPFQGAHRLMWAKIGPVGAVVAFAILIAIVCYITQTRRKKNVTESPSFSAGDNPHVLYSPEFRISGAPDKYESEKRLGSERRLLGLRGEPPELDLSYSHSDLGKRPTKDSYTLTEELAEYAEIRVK
Experimental: (§1) Confluent monolayers of control and MAG-expressing CHO cells were established over a 24-hour (h) period in individual chambers of an 8-well tissue culture slide (Lab-Tek). […] Culture medium was SATO containing 2% FCS. Where indicated, 20 mU of VCS was included throughout the coculture period (see Example 4), or monolayers were incubated with small oligosaccharides for one hour before adding the neuronal cell suspension and included throughout the coculture period. After periods of time as indicated, the cocultures were fixed for 30 min with 4% paraformaldehyde and permeabilized with ice-cold methanol for 2 min. The cells were then blocked for 30 min with DMEM containing 10% FCS and incubated for 2 h with a rabbit polyclonal antibody against the neuronal marker GAP43 (1:4000). Cells were washed three times with PBS-BSA (2%) and then incubated for 30 min at room temperature with a biotinylated donkey anti-rabbit Ig (1:300, Amersham), washed three times, and incubated with streptavidin-conjugated Texas Red (1:300, Amersham) for 30 min. After three more washes, the slides were mounted in Permfluor (Baxter) and viewed with a Zeiss fluorescent microscope. The length of the longest neurite for each GAP43-positive neuron was determined using the Biological Detection System image analysis program (Pittsburgh).
The transfected CHO cell assay described in Example 2 may also be used to screen and identify agents that alter neurite growth properties of a particular neuronal cell type and age in a MAG-dependent fashion. Neurite outgrowth was compared for cerebellar (TABLE 1) and DRG (TABLE 2) neurons from PND 2 animals, grown on MAG-expressing and control CHO cells as described in Example 2. Where indicated, small sialic acid-bearing sugars were included in the co-cultures at increasing concentrations. 100% inhibition was taken as the difference in length of neurites on control and MAG-expressing CHO cells. Results are the mean of at least two experiments, with at least 150 neurons measured for each experiment. DD-NANA=2,3-dideoxy sialic acid; SL=sialo 2,3-α lactose.
Single cell suspensions of different neurons at various postnatal ages were washed and resuspended in phosphate-buffered saline (PBS). Approximately 2×10^6 cells were incubated with 50 mU of Vibrio cholera sialidase (VCS, Calbiochem) (a neuraminidase) in a final volume of 0.5 ml for 2 hours at 37° C. Neurons were washed with PBS and resuspended in SATO medium containing 2% FCS for neurite outgrowth experiments, or in PBS for neurite binding assays.

MAG [2] = target: T2, MAG (Rattus norvegicus, UniProt P07722); experiment: Radiolabelled MAG-Fc binding to cerebellar neurons; settings: PND1 cerebellar neurons; antibody 5 μg/ml or sialidase treatment of neurons before binding
T2 construct: consisting of the extracellular domain of MAG fused to the Fc region of IgG (MAG-Fc); host or cells: COS cells
T2 sequence (P07722 20-516 limits assumed): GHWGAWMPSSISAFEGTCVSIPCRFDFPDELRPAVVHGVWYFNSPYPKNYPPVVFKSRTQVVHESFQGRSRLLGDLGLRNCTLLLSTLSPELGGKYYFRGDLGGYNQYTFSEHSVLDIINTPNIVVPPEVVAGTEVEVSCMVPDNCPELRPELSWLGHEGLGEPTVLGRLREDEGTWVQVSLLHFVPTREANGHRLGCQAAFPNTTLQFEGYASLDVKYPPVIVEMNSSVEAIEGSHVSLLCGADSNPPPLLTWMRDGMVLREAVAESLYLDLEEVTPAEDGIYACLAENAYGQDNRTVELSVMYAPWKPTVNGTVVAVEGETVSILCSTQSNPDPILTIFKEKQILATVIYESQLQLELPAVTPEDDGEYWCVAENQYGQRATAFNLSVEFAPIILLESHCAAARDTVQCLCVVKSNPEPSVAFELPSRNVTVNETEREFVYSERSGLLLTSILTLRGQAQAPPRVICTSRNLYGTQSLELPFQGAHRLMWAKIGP
Experimental: FIG. 4. sialic acid-dependent Binding of MAG to Cerebellar and DRG Neurons. Radiolabelled MAG-Fc (solid bars) was allowed to bind to PND 1 cerebellar and DRG neurons. Incubations were also carried out in the presence of 5 μg/ml of MAG 513 monoclonal antibody (dark hatched bars) or with neurons that had been desialyated (speckled bars). Each experiment was carried out in quadruplicate. The results are the mean of 3 experiments.
MAG binds to all types of neurons tested in a sialic acid-dependent fashion (Kelm et al., Curr. Biol., 4, pp. 965-72 (1994)). […] Sialidase is an enzyme which removes sialic acid from glycoconjugates.

cerebellar neurons [3] = experiment: Neurite outgrowth of cerebellar neurons on MAG-expressing versus control CHO cells; assay type: cell-based, rat; settings: all ages tested, four MAG-expressing CHO cell lines
Experimental: FIG. 1. Inhibition of Neurite outgrowth from Cerebellar Neurons by MAG. Cerebellar neurons from post-natal day (PND) 1, 4 and 7 were grown overnight on a monolayer of MAG-expressing (clear bars) or control transfected CHO cells (hatched bars). Neurons were stained for GAP-43 antigen and neurite length was measured and the average […] length calculated from at least 150 measurements (+/−SEM).
as §1, with “Cells were washed three times with PBS-BSA (2%) and then incubated for 30 min at room temperature with a biotinylated donkey anti-rabbit Ig (1:300, Amersham), washed three times, and incubated with streptavidin-conjugated Texas Red (1:300, Amersham) for 30 min. After three more washes, the slides were mounted in Permfluor (Baxter) and viewed with a Zeiss fluorescent microscope.” left out

[4] = system: retinal ganglion (RG), hippocampal (HN), motor neurons (MN) and superior-cervical ganglion (SCG); experiment: Neurite outgrowth of different neuronal cell types on MAG-expressing versus control CHO cells; assay type: cell-based, rat; settings: neurons from one-day old rats (PND1)
Experimental: FIG. 3. Effect of MAG on Neurite Outgrowth from Different Neuronal Cell Types. Various neurons from PND1 animals were isolated and grown overnight on MAG-expressing (dark hatched) or control (light hatched) CHO cells. Average neurite length was calculated as described in FIG. 1.
as §1, with “Cells were washed three times with PBS-BSA (2%) and then incubated for 30 min at room temperature with a biotinylated donkey anti-rabbit Ig (1:300, Amersham), washed three times, and incubated with streptavidin-conjugated Texas Red (1:300, Amersham) for 30 min. After three more washes, the slides were mounted in Permfluor (Baxter) and viewed with a Zeiss fluorescent microscope.” left out

DRG neurons = experiment: Neurite outgrowth of DRG neurons on MAG-expressing versus control CHO cells; assay type: cell-based, rat
Experimental: FIG. 2. Effect of MAG on Neurite Outgrowth from DRG Neurons of Different Ages. […] 1.
as §1

cerebellar neurons [5] = settings: Mukhopadhyay et al.; cited from earlier work
[6] = 1 mM sugar, MAG-expressing CHO cells

% Reversal of Promotion (MAG [1]; [6]): 0% | % Reversal of Promotion (MAG [1]; 10 mM sugar, MAG-expressing CHO cells): 51% | % Reversal of Promotion (MAG [1]; 20 mM sugar, MAG-expressing CHO cells): 97% | % Reversal of Promotion (MAG [1]; 20 mM sugar, control CHO cells): 0%
Molecule: CC(=O)N[C@H]1[C@H]([C@H](O)[C@H](O)CO)OC(C(=O)O)=C[C@@H]1O [DD NANA, 2,3-dideoxy sialic acid]
effect on the promotion of neurite outgrowth by MAG (MAG [1]): abolished the promotion of neurite outgrowth by MAG completely

Molecule: sialidase: Vibrio cholera sialidase (a neuraminidase), enzyme which removes sialic acid from glycoconjugates
effect on binding of MAG to cerebellar neurons (MAG [2]): abolished | effect on promotion of axonal outgrowth by MAG (MAG [1]; newborn (PND1) DRG neurons desialyated with sialidase): completely abolished

% Reversal of Promotion (MAG [1]; [6]): 0% | % Reversal of Promotion (MAG [1]; 5 mM sugar, MAG-expressing CHO cells): 96% | % Reversal of Promotion (MAG [1]; 18 mM sugar, MAG-expressing CHO cells): 98% | % Reversal of Promotion (MAG [1]; 18 mM sugar, control CHO cells): 0%
Molecule: CC(=O)N[C@H]1[C@H]([C@H](O)[C@H](O)CO)O[C@@](O[C@H]2[C@@H](O)[C@@H](CO)O[C@@H](O[C@H]3[C@H](O)[C@@H](O)C(O)O[C@@H]3CO)[C@@H]2O)(C(=O)O)C[C@@H]1O (stereo partly drawn) [SL, sialo 2,3-α lactose]
effect on the promotion of neurite outgrowth by MAG (MAG [1]): abolished the promotion of neurite outgrowth by MAG completely

B1: MAG: myelin-associated glycoprotein expressed on the surface of transfected CHO cells (protein, UniProt P07722 20-626, looked up)
Myelin-associated glycoprotein: GHWGAWMPSSISAFEGTCVSIPCRFDFPDELRPAVVHGVWYFNSPYPKNYPPVVFKSRTQVVHESFQGRSRLLGDLGLRNCTLLLSTLSPELGGKYYFRGDLGGYNQYTFSEHSVLDIINTPNIVVPPEVVAGTEVEVSCMVPDNCPELRPELSWLGHEGLGEPTVLGRLREDEGTWVQVSLLHFVPTREANGHRLGCQAAFPNTTLQFEGYASLDVKYPPVIVEMNSSVEAIEGSHVSLLCGADSNPPPLLTWMRDGMVLREAVAESLYLDLEEVTPAEDGIYACLAENAYGQDNRTVELSVMYAPWKPTVNGTVVAVEGETVSILCSTQSNPDPILTIFKEKQILATVIYESQLQLELPAVTPEDDGEYWCVAENQYGQRATAFNLSVEFAPIILLESHCAAARDTVQCLCVVKSNPEPSVAFELPSRNVTVNETEREFVYSERSGLLLTSILTLRGQAQAPPRVICTSRNLYGTQSLELPFQGAHRLMWAKIGPVGAVVAFAILIAIVCYITQTRRKKNVTESPSFSAGDNPHVLYSPEFRISGAPDKYESEKRLGSERRLLGLRGEPPELDLSYSHSDLGKRPTKDSYTLTEELAEYAEIRVK
inhibition of neurite outgrowth compared to control cells (cerebellar neurons [3]): at least 70% | effect on neurite growth [4]: potent inhibitor of neurite growth in all cell types tested | inhibition of neurite outgrowth (DRG neurons; DRG neurons from adult rats): about 40% | neurite length on MAG-expressing cells compared to control cells (DRG neurons; DRG neurons from two-day old rats): almost twice as long

B2: Po: another myelin protein expressed by CHO cells, specificity control (protein, UniProt P25189 30-248, looked up)
Myelin protein P0: IVVYTDREVHGAVGSRVTLHCSFWSSEWVSDDISFTWRYQPEGGRDAISIFHYAKGQPYIDEVGTFKERIQWVGDPRWKDGSIVIHNLDYSDNGTFTCDVKNPPDIVGKTSQVTLYVFEKVPTRYGVVLGAVIGGVLGVVLLLLLLFYVVRYCWLRRQAALQRRLSAMEKGKLHKPGKDASKRGRQTPVLYAMLDHSRSTKAVSEKKAKGLGESRKDKK
effect on neurite outgrowth of CHO cells expressing the protein (cerebellar neurons [5]): lack of effect

Reference: patent US6399577B1, “Compositions and methods using myelin-associated glycoprotein (MAG) and inhibitors thereof” (Research Foundation of CUNY, Hunter College, priority 1995, dated 2002)
